Assay type in all cases: biochemical
Assay [1] concerns the target T1, Tie2 (Homo sapiens, UniProt Q02763).
T1 construct: A recombinant fusion protein of GST and the intracellular domains of Tie2; GST; made in house; host or cells: insect cells (Hi-5)
The experiment in a line: Tie2-Kinase HTRF-Assay without kinase preactivation (assay 2). The settings on record: 10 μM ATP, pIC50 = −log IC50 in molar concentration, read-out: Tie 2 activity (assay 2). The text has this: Tie2-inhibitory activity of compounds of the present invention was quantified employing two Tie2 HTRF assay as described in the following paragraphs.
A recombinant fusion protein of GST and the intracellular domains of Tie2, expressed in insect cells (Hi-5) and purified by Glutathion-Sepharose affinity chromatography was used as kinase. Alternatively, commercially available GST-Tie2-fusion protein (Upstate Biotechnology, Dundee, Scotland) can be used as substrate for the kinase reaction the biotinylated peptide biotin-Ahx-EPKDDAYPLYSDFG (C-terminus in amid form) was used which can be purchased e.g. from the company Biosynthan GmbH (Berlin-Buch, Germany). Detection of phosphorylated product is achieved specifically by a trimeric detection complex consisting of the phosphorylated substrate, streptavidin-XLent (SA-XLent) which binds to biotin, and Europium Cryptate-labeled anti-phosphotyrosine antibody PT66 which binds to phosphorylated tyrosine.
Tie2 (3.5 ng/measurement point) was incubated for 60 min at 22° C. in the presence of 10 μM adenosine-tri-phosphate (ATP) and 1 μM substrate peptide (biotin-Ahx-EPKDDAYPLYSDFG-NH2) with different concentrations of test compounds (0 μM and concentrations in the range 0.001-20 μM) in 5 μl assay buffer [50 mM Hepes/NaOH pH 7, 10 mM MgCl2, 0.5 mM MnCl2, 1.0 mM dithiothreitol, 0.01% NP40, protease inhibitor mixture (“Complete w/o EDTA” from Roche, 1 tablet per 2.5 ml), 1% (v/v) dimethylsulfoxide]. The reaction was stopped by the addition of 5 μl of an aqueous buffer (25 mM Hepes/NaOH pH 7.5, 0.28% (w/v) bovine serum albumin) containing EDTA (90 mM) and the HTRF (Homogeneous Time Resolved Fluorescence) detection reagents streptavidine-XLent (0.2 μM, from Cis Biointernational, Marcoule, France) and PT66-Eu-Chelate (0.3 ng/μl; a europium-chelate labelled anti-phospho-tyrosine antibody from Perkin Elmer).
(§1) The resulting mixture was incubated 1 h at 22° C. to allow the binding of the biotinylated phosphorylated peptide to the streptavidine-XLent and the PT66-Eu-Chelate. Subsequently the amount of phosphorylated substrate peptide was evaluated by measurement of the resonance energy transfer from the PT66-Eu-Chelate to the streptavidine-XLent. Therefore, the fluorescence emissions at 620 nm and 665 nm after excitation at 350 nm was measured in a HTRF reader, e.g. a Rubystar (BMG Labtechnologies, Offenburg, Germany) or a Viewlux (Perkin-Elmer). The ratio of the emissions at 665 nm and at […] was taken as the measure for the amount of phosphorylated substrate peptide. The data were normalised (enzyme reaction without inhibitor=0% inhibition, all other assay components but no enzyme=100% inhibition) and IC50 values were calculated by a 4 parameter fit using an inhouse software.
For orientation: TR-FRET usually uses a lanthanide donor and a delayed reading to cut background.

Assay [2] deals with T2, preactivated Tie2 (Homo sapiens, UniProt Q02763).
T2 construct: A recombinant fusion protein of GST and the intracellular domains of Tie2; GST; made in house; host or cells: insect cells (Hi-5)
The experiment in a line: Tie2-Kinase HTRF-Assay with kinase preactivation (assay 3). To be noted: 10 μM ATP, pIC50 = −log IC50 in molar concentration, read-out: Tie 2 activity (assay 3). On the procedure: Assay 3: Tie2-Kinase HTRF-Assay with Kinase Preactivation
A recombinant fusion protein of GST and the intracellular domains of Tie2, expressed in insect cells (Hi-5) and purified by Glutathion-Sepharose affinity chromatography was used as kinase. As substrate for the kinase reaction the biotinylated peptide biotin-Ahx-EPKDDAYPLYSDFG (C-terminus in amid form) was used which can be purchased e.g. from the company Biosynthan GmbH (Berlin-Buch, Germany).
For activation, Tie2 was incubated at a conc. 12.5 ng/μl of for 20 min at 22° C. in the presence of 250 μM adenosine-tri-phosphate (ATP) in assay buffer [50 mM Hepes/NaOH pH 7, 10 mM MgCl2, 0.5 mM MnCl2, 1.0 mM dithiothreitol, 0.01% NP40, protease inhibitor mixture (“Complete w/o EDTA” from Roche, 1 tablet per 2.5 ml)].
For the subsequent kinase reaction, the preactivated Tie2 (0.5 ng/measurement point) was incubated for 20 min at 22° C. in the presence of 10 μM adenosine-tri-phosphate (ATP) and 1 μM substrate peptide (biotin-Ahx-EPKDDAYPLYSDFG-NH2) with different concentrations of test compounds (0 μM and concentrations in the range 0.001-20 μM) in 5 μl assay buffer [50 mM Hepes/NaOH pH 7, 10 mM MgCl2, 0.5 mM MnCl2, 0.1 mM sodium ortho-vanadate, 1.0 mM dithiothreitol, 0.01% NP40, protease inhibitor mixture (“Complete w/o EDTA” from Roche, 1 tablet per 2.5 ml), 1% (v/v) dimethylsulfoxide]. The reaction was stopped by the addition of 5 μl of an aqueous buffer (25 mM Hepes/NaOH pH 7.5, 0.28% (w/v) bovine serum albumin) containing EDTA (90 mM) and the HTRF (Homogeneous Time Resolved Fluorescence) detection reagents streptavidine-XLent (0.2 μM, from Cis Biointernational, Marcoule, France) and PT66-Eu-Chelate (0.3 ng/μl; a europium-chelate labelled anti-phospho-tyrosine antibody from Perkin Elmer).
as §1

Assay [3] deals with T3, CDK2/CycE (Homo sapiens, UniProt P24941).
T3 construct: GST; purchased ProQinase GmbH (Freiburg, Germany); host or cells: insect cells (Sf9)
The experiment in a line: CDK2 HTRF Assay (assay 4). The settings on record: 10 μM ATP, pIC50 = −log IC50 in molar concentration. The text has this:
CDK2/CycE-inhibitory activity of compounds of the present invention was quantified employing the CDK2/CycE HTRF assay as described in the following paragraphs.
Recombinant fusion proteins of GST and human CDK2 and of GST and human CycE, expressed in insect cells (Sf9) and purified by Glutathion-Sepharose affinity chromatography, were purchase from ProQinase GmbH (Freiburg, Germany). As substrate for the kinase reaction biotinylated peptide biotin-Ttds-YISPLKSPYKISEG (C-terminus in amid form) was used which can be purchased e.g. form the company JERINI peptide technologies (Berlin, Germany).
CDK2/CycE was incubated for 60 min at 22° C. in the presence of different concentrations of test compounds in 5 μl assay buffer [50 mM Tris/HCl pH 8.0, 10 mM MgCl2, 1.0 mM dithiothreitol, 0.1 mM sodium ortho-vanadate, 10 μM adenosine-tri-phosphate (ATP), 0.75 μM substrate, 0.01% (v/v) Nonidet-P40 (Sigma), 1% (v/v) dimethylsulfoxide]. The concentration of CDK2/CycE was adjusted depending of the activity of the enzyme lot and was chosen appropriate to have the assay in the linear range, typical concentrations were in the range of 1 ng/ml. The reaction was stopped by the addition of 5 μl of a solution of HTRF detection reagents (0.2 μM streptavidine-XLent and 3.4 nM Phospho-(Ser) CDKs Substrate Antibody [product #2324B, Cell Signalling Technology, Danvers, Mass., USA} and 4 nM Prot-A-EuK [Protein A labeled with Europium Cryptate from Cis biointernational, France, product no. 61PRAKLB]) in an aqueous EDTA-solution (100 mM EDTA, 800 mM KF, 0.2% (w/v) bovine serum albumin in 100 mM HEPES/NaOH pH 7.0).

T1 sequence (Q02763 770-1124 limits assumed): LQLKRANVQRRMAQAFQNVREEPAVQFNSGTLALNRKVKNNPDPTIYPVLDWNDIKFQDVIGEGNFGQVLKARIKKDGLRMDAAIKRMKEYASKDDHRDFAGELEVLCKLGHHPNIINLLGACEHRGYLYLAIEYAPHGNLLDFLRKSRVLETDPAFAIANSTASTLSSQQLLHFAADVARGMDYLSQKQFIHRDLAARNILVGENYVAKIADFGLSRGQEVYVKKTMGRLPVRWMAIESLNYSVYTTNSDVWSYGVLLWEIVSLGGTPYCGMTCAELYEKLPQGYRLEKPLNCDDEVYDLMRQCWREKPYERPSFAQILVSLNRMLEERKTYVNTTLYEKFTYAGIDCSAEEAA
T2 sequence (Q02763 770-1124 limits assumed): as above

On to `CNc1nc(Nc2cccc(S(C)(=N)=O)c2)ncc1-c1ccc(NC(=O)Nc2cc(C(F)(F)F)ccc2F)c(F)c1` (racemic) [Example 49, 1-{2-Fluoro-4-[4-(methylamino)-2-{[3-(RS)-(S-methylsulfonimidoyl)phenyl]amino}-pyrimidin-5-yl]phenyl}-3-[2-fluoro-5-(trifluoromethyl)-phenyl]urea], for which the IC50 was below 0.1 µM in assay [1], below 0.1 µM in assay [2] and above 10 µM in assay [3].

As for `CCOC(=O)N=S(C)(=O)c1cccc(Nc2ncc(-c3ccc(NC(=O)C4(c5ccccc5)CC4)cc3)c(N[C@H](C)CO)n2)c1` (mixture of isomers) [Example 9, N-{4-[2-({3-[(RS)-N-(Ethoxycarbonyl)-S-methylsulfonimidoyl]phenyl}amino)-4-{[(R)-2-hydroxy-1-methylethyl]amino}-pyrimidin-5-yl]phenyl}-1-phenylcyclopropane-carboxamide], the IC50 was 0.1 to 1 µM in assay [1], 0.1 to 1 µM in assay [2] and above 10 µM in assay [3].

As for `C[C@H](CO)Nc1nc(Nc2cccc(S(C)(=N)=O)c2)ncc1-c1ccc(NC(=O)C2(c3ccccc3)CC2)cc1` (mixture of isomers) [Example 33, N-{4-[4-{[(R)-2-Hydroxy-1-methylethyl]amino}-2-({3-[(RS)-S-methylsulfonimidoyl]phenyl}amino)pyrimidin-5-yl]phenyl}-1-phenylcyclopropanecarboxamide], the IC50 was below 0.1 µM in assay [1], 0.1 to 1 µM in assay [2] and above 10 µM in assay [3].

Regarding `CCOC(=O)N=S(C)(=O)c1cccc(Nc2ncc(-c3ccc(NC(=O)Nc4cc(C(F)(F)F)ccc4F)c(F)c3)c(OC)n2)c1` (racemic) [Example 31, 1-{4-[2-({3-[(RS)-N-(Ethoxycarbonyl)-S-methylsulfonimidoyl]phenyl}amino)-4-(methoxy)-pyrimidin-5-yl]-2-fluorophenyl}-3-[2-fluoro-5-(trifluoromethyl)-phenyl]urea], the IC50 is below 0.1 µM in assay [1], below 0.1 µM in assay [2] and above 10 µM in assay [3].

For the compound `CCOC(=O)N=S(C)(=O)c1cccc(Nc2ncc(-c3ccc(NC(=O)Nc4cc(C(F)(F)F)ccc4F)c(F)c3)c(NCCN3CCN(C)CC3)n2)c1` (racemic) [Example 28, 1-{4-[2-({3-[(RS)-N-(Ethoxycarbonyl)-S-methylsulfonimidoyl]phenyl}amino)-4-{[2-(N-methyl-piperazin-4-yl)ethyl]amino}pyri-midin-5-yl]-2-fluorophenyl}-3-[2-fluoro-5-(trifluoromethyl)-phenyl]urea], the values for the IC50 in assay [1], in assay [2] and in assay [3] were below 0.1 µM, 0.1 to 1 µM and above 10 µM, respectively.

Turning to `CCOC(=O)N=S(C)(=O)c1cccc(Nc2ncc(-c3ccc(NS(=O)(=O)c4cccc(Cl)c4Cl)cc3)c(N[C@H](C)CO)n2)c1` (mixture of isomers) [Example 2, 2,3-Dichloro-N-{4-[2-({3-[(RS)-N-(ethoxycarbonyl)-S-methylsulfonimidoyl]phenyl}amino)-4-{[(R)-2-hydroxy-1-methylethyl]amino}pyrimidin-5-yl]-phenyl}benzenesulfonamide], the IC50 in assay [1] was 0.1 to 1 µM; in assay [2], 0.1 to 1 µM; in assay [3] it was above 10 µM.

As to `CCOC(=O)N=S(C)(=O)c1ccc(Nc2ncc(-c3ccc(NC(=O)Nc4cccc(C(F)(F)F)c4)cc3)c(N[C@H](C)CO)n2)cc1` (mixture of isomers) [Example 7, 1-{4-[2-({4-[(RS)-N-(Ethoxycarbonyl)-S-methylsulfonimidoyl]phenyl}amino)-4-{[(R)-2-hydroxy-1-methylethyl]amino}-pyrimidin-5-yl]-phenyl}-3-[3-(trifluoromethyl)-phenyl]urea], the IC50 was below 0.1 µM in assay [1], below 0.1 µM in assay [2] and above 10 µM in assay [3].

On to `C[C@H](CO)Nc1nc(Nc2cccc(S(C)(=N)=O)c2)ncc1-c1ccc(NS(=O)(=O)c2cccc(Cl)c2Cl)c(F)c1` (mixture of isomers) [Example 42, 2,3-Dichloro-N-[2-fluoro-4-(4-{[(R)-2-hydroxy-1-methylethyl]amino}-2-{[3-(RS)-(S-methylsulfonimidoyl)phenyl]amino}-pyrimidin-5-yl)phenyl]benzene-sulfonamide], for which the IC50 in assay [1] was 0.1 to 1 µM; in assay [2] it was below 0.1 µM; in assay [3] it was above 10 µM.

As for `COc1nc(Nc2cccc(S(C)(=N)=O)c2)ncc1-c1ccc(NC(=O)Nc2cc(C(F)(F)F)ccc2F)c(F)c1` (racemic) [Example 45, 1-[2-Fluoro-4-(4-methoxy-2-{[3-(RS)-(S-methylsulfon-imidoyl)phenyl]-amino}pyrimidin-5-yl)phenyl]-3-[2-fluoro-5-(trifluoromethyl)phenyl]urea], the IC50 in assay [1] is below 0.1 µM; in assay [2] it was below 0.1 µM; in assay [3], above 10 µM.

`CCOC(=O)N=S(C)(=O)c1cccc(Nc2ncc(-c3ccc(NS(=O)(=O)c4cccc(Cl)c4Cl)c(F)c3)c(N[C@H](C)CO)n2)c1` (mixture of isomers) [Example 13, 2,3-Dichloro-N-{4-[2-({3-[(RS)-N-(ethoxycarbonyl)-S-methylsulfonimidoyl]phenyl}amino)-4-{[(R)-2-hydroxy-1-methylethyl]amino}-pyrimidin-5-yl]-2-fluorophenyl}-benzenesulfonamide]: the values for the IC50 in assay [1], in assay [2] and in assay [3] were 0.1 to 1 µM, 0.1 to 1 µM and above 10 µM, respectively.
